Drawing on PMC3169561, “Restoration of IFNγR Subunit Assembly, IFNγ Signaling and Parasite Clearance in Leishmania donovani Infected Macrophages: Role of Membrane Cholesterol” (PLoS Pathogens, 2011), this text covers Kd for one compound.

Molecules are shown by their SMILES.

The experiment concerns the target T1, IFNγ receptor subunit 1 (IFNγR1) (Mus musculus, UniProt P15261).
T1 construct: gene Ifngr1; synthetic Wt IFNγR1 peptide, CRAC motif, residues 269 to 280 ([…])
In words: SPR (BIAcore […], L1 chip) of peptide over immobilized phosphatidylcholine/cholesterol liposomes. The experiment is classed as binding. For orientation: SPR reads the build-up and loss of mass on a sensor chip optically.

Turning to `CC(C)CCC[C@@H](C)[C@H]1CC[C@H]2[C@@H]3CC=C4C[C@@H](O)CC[C@]4(C)[C@H]3CC[C@]12C` [cholesterol], the dissociation constant (Kd) (commonly the concentration at which binding is half-saturated) was found to be 4.27 nM.
